# According to publication PMC6366404, “4-(3-Nitrophenyl)thiazol-2-ylhydrazone derivatives as antioxidants and selective hMAO-B inhibitors: synthesis, biological activity and computational analysis” (Journal of Enzyme Inhibition and Medicinal Chemistry, 2019):
# Columns and labels:
# [1] = Metal chelating activity on ferrous ions; conditions: ferrozine
# Protocol: Metal chelating activity on ferrous ions was evaluated by the method previously described. Briefly, the sample solution (2 ml) was added to FeCl2 solution (0.05 ml, 2 mM). The reaction was initiated by the addition of 5 mM ferrozine (0.2 ml). Similarly, a blank was prepared by adding the sample solution (2 ml) to FeCl2 solution (0.05 ml, 2 mM) and water (0.2 ml) without ferrozine. Then, the sample and blank absorbance were recorded at 562 nm after incubation for 10 min at room temperature. The absorbance of the blank was subtracted from that of the sample. EDTA was used as a positive control and this property was expressed as IC50 value for each compound.
# [2] = FRAP (ferric reducing antioxidant power) assay
# Protocol: (§1) The FRAP (ferric reducing antioxidant power) assay was carried out as described by Zengin et al.[38]. The sample solution (0.1 ml) was added to the premixed FRAP reagent (2 ml) containing acetate buffer (0.3 M, pH 3.6), 2,4,6-tris(2-pyridyl)-s-triazine (10 mM) in 40 mM HCl, and ferric chloride (20 mM) in a ratio of 10/1/1 (v/v/v). The absorbance of the sample was subsequently recorded at 593 nm after 30 min incubation at room temperature. Both results were expressed as EC50 values, using trolox as a reference drug.
# [3] = Phosphomolybdenum assay (PhosphoMo), total antioxidant activity; conditions: concentration at which absorbance was 0.5
# Protocol: The total antioxidant activity of the compounds was evaluated by phosphomolybdenum method according to Zengin et al.[35]. The sample solution (0.3 ml) was combined with 3 ml of reagent solution (0.6 M sulphuric acid, 28 mM sodium phosphate, and 4 mM ammonium molybdate) and the absorbance was recorded at 695 nm after 90 min incubation at 95 °C. The EC50, which is the effective concentration at which the absorbance was 0.5, was calculated for each compound and trolox, as a reference drug.
# hMAO-A = biological target: T1, hMAO-A (Homo sapiens, UniProt P21397); assay: hMAO-A inhibition, IC50 determination (kynuramine fluorescence); format: biochemical
# T1 sequence (P21397 1-527): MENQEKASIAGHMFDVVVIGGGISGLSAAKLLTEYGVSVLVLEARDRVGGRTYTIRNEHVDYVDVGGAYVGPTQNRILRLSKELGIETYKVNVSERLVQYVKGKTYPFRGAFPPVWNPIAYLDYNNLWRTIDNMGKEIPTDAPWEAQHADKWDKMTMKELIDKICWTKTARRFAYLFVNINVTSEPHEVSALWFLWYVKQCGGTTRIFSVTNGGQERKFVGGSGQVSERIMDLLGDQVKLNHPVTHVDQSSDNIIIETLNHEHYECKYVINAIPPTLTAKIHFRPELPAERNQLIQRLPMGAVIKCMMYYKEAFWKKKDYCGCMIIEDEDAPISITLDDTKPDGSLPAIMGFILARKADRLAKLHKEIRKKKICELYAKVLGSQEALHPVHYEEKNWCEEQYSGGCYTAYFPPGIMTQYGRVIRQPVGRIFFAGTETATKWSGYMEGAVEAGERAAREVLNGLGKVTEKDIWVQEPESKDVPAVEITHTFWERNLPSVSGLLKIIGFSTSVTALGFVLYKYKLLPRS
# Protocol: (§2) The procedure for the measurement of IC50 values for the inhibition of MAO has been reported. The enzyme reactions were prepared to a volume of […] in potassium phosphate buffer at pH 7.4 (100 mM, made isotonic with KCl) and contained kynuramine (50 μM) and the test inhibitors (0.003–100 µM). Stock solutions of the test inhibitors were prepared in DMSO and added to the reactions to yield 4% DMSO. The enzyme reactions were initiated with the addition of recombinant hMAO-A (0.0075 mg protein/mL) or hMAO-B (0.015 mg protein/mL) and incubated for 20 min at 37 °C. At endpoint, the reactions were terminated with 80 µL sodium hydroxide (2N) and the fluorescence of 4-hydroxyquinoline, the oxidation product of kynuramine, was measured (λex = 310; λem = 400 nm)[33]. 4-Hydroxyquinoline was quantified with a calibration curve (0.047–1.56 μM) and the rate of 4-hydroxyquinoline formation was fitted to the one site competition model of the Prism 5 software package (GraphPad). From the resulting sigmoidal plots, the IC50 values were estimated. All enzyme reactions were carried out in triplicate and IC50 values are given as the mean ± standard deviation (SD).
# [4] = Cupric ion reducing activity (CUPRAC)
# Protocol: The cupric ion reducing activity (CUPRAC) was determined according to the method of Zengin et al.[38]. The sample solution (0.5 ml) was added to a premixed reaction mixture containing CuCl2 (1 ml, 10 mM), neocuproine (1 ml, 7.5 mM), and NH4Ac buffer (1 ml, 1 M, pH 7.0). Similarly, a blank was prepared by adding the sample solution (0.5 ml) to a premixed reaction mixture (3 ml) without CuCl2. The absorbances of the sample and blank were subsequently recorded at 450 nm after 30 min incubation at room temperature. The absorbance of the blank was subtracted from that of the sample.
# as §1
# hMAO-B = biological target: T2, hMAO-B (Homo sapiens, UniProt P27338); assay: hMAO-B inhibition, IC50 determination (kynuramine fluorescence); format: biochemical; conditions: ratio (IC50 hMAO-A)/(IC50 hMAO-B)
# T2 sequence (P27338 1-520): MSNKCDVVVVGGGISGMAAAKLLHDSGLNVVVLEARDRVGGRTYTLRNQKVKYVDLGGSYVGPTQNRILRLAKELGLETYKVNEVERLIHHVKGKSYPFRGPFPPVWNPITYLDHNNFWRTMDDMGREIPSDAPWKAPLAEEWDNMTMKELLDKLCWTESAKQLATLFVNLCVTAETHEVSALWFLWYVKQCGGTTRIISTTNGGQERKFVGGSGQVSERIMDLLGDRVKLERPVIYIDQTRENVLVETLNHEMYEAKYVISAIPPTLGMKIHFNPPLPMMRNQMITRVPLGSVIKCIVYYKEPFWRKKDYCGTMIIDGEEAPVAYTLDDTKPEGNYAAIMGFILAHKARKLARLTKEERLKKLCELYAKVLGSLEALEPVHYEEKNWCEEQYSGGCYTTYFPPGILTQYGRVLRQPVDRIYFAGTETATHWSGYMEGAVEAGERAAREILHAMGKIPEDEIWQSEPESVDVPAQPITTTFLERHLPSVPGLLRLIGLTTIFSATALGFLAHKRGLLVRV
# Protocol: as §2
# [5] = ABTS radical cation scavenging activity
# Protocol: (§3) The scavenging activity of the compounds on the ABTS radical cation [ABTS,2,2′-azino-bis(3-ethylbenzothiazoline)-6-sulphonic acid] was measured according to the method of Zengin et al.[37] with slight modification. Briefly, ABTS^+ was produced directly by reacting a 7 mM ABTS solution with 2.45 mM potassium persulphate and allowing the mixture to incubate for 12–16 h in the dark at room temperature. Prior to initiating the assay, the ABTS solution was diluted with methanol to an absorbance of 0.700 ± 0.02 at 734 nm. The sample solution (1 ml) was added to the ABTS^+ solution (2 ml) and mixed, and the sample absorbance was recorded at 734 nm after 30 min incubation at room temperature. The corresponding IC50 value, which is the effective concentration at which 50% of DPPH/ABTS radicals are scavenged, was calculated for each compound and trolox, as a reference drug.
# [6] = DPPH radical scavenging activity
# Protocol: The radical scavenging effect of the compounds using the 1,1-diphenyl-2-picrylhydrazyl (DPPH) radical was estimated according to Zengin et al.[36]. The sample solution (1 ml) was added to 4 ml of a 0.004% solution of DPPH in methanol. The sample absorbance was recorded at 517 nm after 30 min incubation at room temperature in the dark.
# as §3
compound,measurement,setting,value
"O=[N+]([O-])c1cccc(-c2csc(NN=Cc3cccs3)n2)c1 [Compound 3, 1-(4-(3-Nitrophenyl)thiazol-2-yl)-2-(thiophen-2-ylmethylene)hydrazine]",IC50,[1],> 5000 µM
same,EC50,[2],410 ± 20 µM
same,EC50,[3],1840 ± 180 µM
same,IC50,hMAO-A,57.2 µM
same,EC50,[4],590 ± 10 µM
same,Selectivity index (SI) for the MAO-B isoform,hMAO-B,8412
same,IC50,[5],1050 ± 10 µM
same,IC50,[6],1190 ± 10 µM
